# Patent publication US20040023893A1, “Novel coumarin derivatives and the salts thereof, a process for the preparation thereof and their use in the pharmaceutical field” (priority 2000, published 2004)
# Like-named read-outs stand apart in the source and are kept apart here.
# Assays:
# nitrite-nitrate release = assay: Inhibition of the release of nitrite-nitrate in rat plasma after LPS; type: in vivo; settings: 25 mg/Kg o.s. 30 minutes before and 3 hours after LPS 0.1 mg/Kg i.v., blood 8 hours after LPS, Griess reagent, saline controls = 100%
# Experimental: Test 4—Inhibition of the Release of Nitrite-Nitrate in Rat Plasma
# The release of nitrite-nitrite was measured with Griess reagent in blood samples taken 8 hours after the administration of LPS (0.1 mg/Kg) i.v.
# The animals were treated with the compounds by o.s. (25 mg/Kg) 30 minutes before and 3 hours after LPS. The control animals received saline instead of the test compounds. The values for the release of nitrite-nitrate were made to correspond to 100%.
# [1] = system: TNF release, murine macrophage line (J774); assay: Inhibition of TNF release after stimulation with LPS in vitro, J774 macrophages (L929 mortality readout); type: cell-based; settings: J774 macrophages stimulated with LPS, concentration (± standard error) inhibiting L929 fibroblast mortality by 50%, read-out: J774 CI50
# Experimental: (§1) Test 1—Inhibition of TNF Release After Stimulation with LPS in vitro
# (§2) The test compound was added to the culture medium in a murine macrophage line (J774) or to whole blood anti-coagulated with heparin. The cells were then stimulated with bacterial lipopolysacccharide. After incubation at 37° C. for a suitable length of time, the supernatant was removed from the culture and incubated with a line of murine fibroblasts (L929), sensitive to TNF. The quantity of TNF released after stimulation with LPS is measured by comparing mortality of the L929 cells with that of the controls. Table 1 reports for the single compounds the concentration (±standard error) able to inhibit fibroblast mortality (L929) by 50%.
# TNF release, human blood = assay: Inhibition of TNF release after stimulation with LPS in vitro, whole blood (L929 mortality readout); type: cell-based; settings: heparinised whole blood stimulated with LPS; concentration (± standard error) inhibiting L929 fibroblast mortality by 50%; read-out: Human blood CI50
# Experimental: as §1, §2
# TNF = assay: Inhibition of the release of TNF following stimulation with LPS in vivo; settings: rat, blood 75 minutes after LPS, ELISA, vs saline controls
# Experimental: (§3) Test 2—Inhibition of the Release of TNF and IL-β Following Stimulation with LPS in vivo
# (§4) Conscious rats were injected with a dose of LPS, which is able to stimulate the release of TNF and IL-1β, having first received an intravenous administration (15 minutes beforehand) of the test compound at a dose of 0.5 mg/Kg or 2 mg/Kg. Blood levels of TNF and IL-1β were measured by the ELISA method on blood samples taken 75 minutes and 120 minutes after LPS respectively.
# (§5) Table 2 below reports the percent of inhibition of each product compared to that of the controls treated with saline.
# IL-1β = assay: Inhibition of the release of IL-1β following stimulation with LPS in vivo; settings: rat, blood 120 minutes after LPS, ELISA, vs saline controls
# Experimental: as §3, §4, §5
# [2] = system: carrageenin-induced oedema in rat paw; assay: Carrageenin-induced oedema in rat paw; type: in vivo; settings: 2 mg/Kg i.v. 5 minutes before 1.5 mg carrageenin intraplantar, paws weighed 3 hours later, saline controls = 100%
# Experimental: Test 3—Reduction in Inflammation in Carrageenin-Induced Oedema in Rat Paw
# A model of acute inflammation induced by intraplantar injection of 1.5 mg of carrageenin in rat paw was used. Administration of the compounds (2 mg/Kg) was by the intravenous route 5 minutes before oedema was induced: 3 hours later the animals were sacrificed and their paws were weighed as an indication of inflammation. The control animals received saline instead of the test compounds. The weight of the paws of the control animals was taken to correspond to 100% on the inflammation index.
# [3] = system: superoxide anions, human whole blood; assay: Inhibition of superoxide anion formation induced by f-MLP in human whole blood; type: cell-based; settings: 20 minutes preincubation at 37° C., f-MLP with cytochalasin B, read-out: CI50 (superoxide anion formation, Cytochrome C)
# Experimental: Test 5—Inhibition of the Formation of Superoxide anions Induced by f-MLP in Human Whole Blood
# Samples of whole blood diluted with PBS Cytochrome C were incubated for 20 minutes at 37° C. with the test compounds or saline before adding the chermotactic agent f-MLP (0.1 μm/l) in the presence of cytochalasin B. After 20 minutes of activation with this agent, the samples were centrifuged and readings were taken of the supernatants with a spectrophotometer to assess the reduction in Cytochrome C. Table 5 reports the concentrations that are effective in inhibiting the loss of Cytochrome C by 50%.
# [4] = system: platelet aggregation, human whole blood; assay: Inhibition of collagen-induced platelet aggregation in human whole blood; type: cell-based; settings: collagen 1 μg/ml, 1 minute preincubation, count 5 minutes after collagen, vs saline, read-out: CI50 (platelet aggregation)
# Experimental: Test 6—Inhibition of Collagen-Induced Platelet Aggregation in Human Whole Blood
# The aggregation event was analysed by counting the single non-aggregated platelets with a cell counter 5 minutes after adding collagen (1 μg/ml). In these working conditions, collagen induces platelet aggregation of over 80%. The test compounds or saline as control were preincubated for 1 minute before the collagen was added.
# Table 6 reports the concentrations that inhibit platelet aggregation by 50% compared to saline.
# [5] = Toxicity after a single intravenous administration; type: in vivo; settings: mouse, in vivo, male CD-1 mice, read-out: DMT (maximum tolerated dose, MTD)
# From the text: (§6) Test 7—Toxicity After a Single Intravenous Administration
# (§7) Male CD-1 mice were used to assess the maximum non-lethal does (MNLD—the highest does at which no cases of mortality are observed) and the maximum tolerated does (MTD—does at which no evident or marked signs of tocicity or altered behaviour are observed).
# Male CD-1 mice = assay: Toxicity after a single intravenous administration; type: in vivo
# From the text: as §6, §7
# [6] = system: Salmonella typhimurium (TA 98 and TA 100) and Escherichia coli (WP2 pKM101 and WP2 uvrA pKM1091); assay: Mutagenesis (Mini-Ames test); type: cell-based; settings: with and without microsomal liver enzyme preparation
# Experimental: Test 8—Mutagenesis (Mini-Ames Test)
# The Mini-Ames test is a version of the traditional Ames test which involves the incubation of bacterial cells on 35-mm dishes instead of 100-mm dishes, and it requires a smaller quantity of product while maintaining the reliability of the result.
# The test is conducted on two strains of Salmonella typhimurium requiring histidine (TA 98 and TA 100) and two strains of Escherichia coli requiring tryptophan (WP2 pKM101 and WP2 uvrA pKM1091).
# The bacterial cells were exposed to different concentrations of the test compounds in the presence and absence of a microsomal liver enzyme preparation, to reveal any possible metabolite activity.
# Mutagenic activity was determined as the ability of the test compound to induce a significant increase in the number of mutant clones compared to those developed spontaneously in the cultures with the control vehicle.
# [7] = iv, dose of 0.5 mg/Kg i.v. 15 minutes before LPS
# [8] = iv, dose of 2 mg/Kg i.v. 15 minutes before LPS
# [9] = dose of 0.5 mg/Kg i.v. 15 minutes before LPS
# [10] = dose of 2 mg/Kg i.v. 15 minutes before LPS
Compound,% vs controls (release of nitrite-nitrate) (nitrite-nitrate release) [%],IC50 ([1]; Mus musculus) [µM],"IC50 (TNF release, human blood) [µM]",inhibition at 0.5 mg/kg (TNF; [7]) [%],inhibition at 2 mg/kg (TNF; [8]) [%],inhibition at 0.5 mg/kg (IL-1β; [7]) [%],inhibition at 2 mg/kg (IL-1β; [8]) [%],"/o vs controls (paw weight, inflammation index) [2]",IC50 [3] [µM],IC50 ([4]; Platelet) [µM],MTD [5] [mg/kg],"DMNL (maximum non-lethal dose, MNLD) (Male CD-1 mice)",IC50 [1] [µM],IC50 [4] [µM],"DMT (maximum tolerated dose, MTD) (Male CD-1 mice) [mg/kg]",% of inhibition of TNF (TNF; [9]) [%],% of inhibition of TNF (TNF; [10]) [%],% of inhibition of IL-1β (IL-1β; [9]) [%],% of inhibition of IL-1β (IL-1β; [10]) [%],Mutagenic activity (Mini-Ames test) [6]
"C[C@H]1C[C@H]2[C@@H]3CCC4=CC(=O)C=C[C@]4(C)[C@@]3(F)[C@@H](O)C[C@]2(C)[C@@]1(O)C(=O)CO [Betamethasone, reference compound]",20,,,,,,,,,,,,,,,,,,,
"CCOC(=O)COc1ccc2c(C)c(CCN(CC)CC)c(=O)oc2c1Cl [Compound 201006, Cloricromene, reference compound]",99,57.9 ± 20,78.6 ± 10,9,30,45,28,79 /o,52,35,6.25,12.5 mg(Kg,,,,,,,,
CCOC(=O)[C@@H](N)CSCC(O)COc1ccc2c(C)c(CCN(CC)CC)c(=O)oc2c1.Cl.Cl (some centres unmarked) [Compound 201261],98,,9,,,,,86 /o,,,,200 mg(Kg,25.4,> 100,50,,,,,
CCCCC(O)COc1ccc2c(C)c(CCN(CC)CC)c(=O)oc2c1.Cl (centres unmarked) [Compound 201273],76,,40.4 ± 13.5,,,,,67 /o,> 100,,,100 mg(Kg,27.5 ± 5.3,> 100,25,72,84,67,39,"None of the tested compounds (203152, 201273, 201326 and 201330) proved to be mutagenic"
CCCCC(O)COc1ccc2c(C)c(CCN(CC)CC)c(=O)oc2c1Cl.Cl (centres unmarked) [Compound 201326],62,,23 ± 2,,,,,58 /o,> 100,,,50 mg(Kg,10.5 ± 3,78,6.25,85,77,40,62,"None of the tested compounds (203152, 201273, 201326 and 201330) proved to be mutagenic"
CCN(CC)CCc1c(C)c2ccc(OCC(=O)NC3CCCCC3)c(Cl)c2oc1=O.Cl.Cl [Compound 201330],,,12.6 ± 3.5,,,,,77 /o,36,,,50 mg(Kg,12 ± 3.9,93,25,75,62,33,57,"None of the tested compounds (203152, 201273, 201326 and 201330) proved to be mutagenic"
C=CCc1cc2c(C)c(CN3CCOCC3)c(=O)oc2c(CC=C)c1OCCCOc1c(CC=C)cc2c(C)c(CN3CCOCC3)c(=O)oc2c1CC=C.Cl.Cl [Compound 203152],108,,> 80,,,,,90 /o,> 100,,,200 mg(Kg,13.3 ± 9,> 100,50,72,73,64,60,"None of the tested compounds (203152, 201273, 201326 and 201330) proved to be mutagenic"
"COc1ccc2c(c1)c(CC(=O)O)c(C)n2C(=O)c1ccc(Cl)cc1 [Indomethacin, reference compound]",,,,,,,,57 /o,,,,,,,,,,,,
"C[C@H]1C[C@@H]2[C@H]([C@@H](O)C[C@@]3(C)[C@H]2CC[C@]3(O)C(=O)CO)[C@@]2(C)C=CC(=O)C=C12 [Methylprednisolone, reference compound]",,,,,,,,56 /o,,,,,,,,,,,,
"CCCCC[C@H](O)/C=C/[C@@H]1[C@H]2C/C(=C/CCCC(=O)O)O[C@H]2C[C@H]1O [PG12, reference compound]",,,,,,,,,,,,,,0.05,,,,,,
